The values that follow come from patent US20110280898A1, “INHBB EPITOPE PEPTIDES AND VACCINES CONTAINING THE SAME” (Oncotherapy Science, Inc., priority 2008, published 2011).

Entries after “also recorded” stand apart in the source; their conditions may differ.

In the first test the test system is peptide-pulsed T2 cells. Put plainly: IFN-gamma ELISA assay on expanded CTL line. The format is cell-based, human. The settings on record: CTL line expanded from positive well #7, peptide-pulsed target vs target without peptide pulse. From the text: Monocyte-derived dendritic cells (DCs) were used as antigen-presenting cells (APCs) to induce cytotoxic T lymphocyte (CTL) responses against peptides presented on human leukocyte antigen (HLA). DCs were generated in vitro as described elsewhere (Nakahara S et al., Cancer Res 2003 Jul 15, 63(14): 4112-8). Specifically, peripheral blood mononuclear cells (PBMCs) isolated from a normal volunteer (HLA-A*0201 positive) by Ficoll-Plaque (Pharmacia) solution were separated by adherence to a plastic tissue culture dish (Becton Dickinson) so as to enrich them as the monocyte fraction. The monocyte-enriched population was cultured in the presence of 1000 U/ml of granulocyte-macrophage colony-stimulating factor (GM-CSF) (R&D System) and 1000 U/ml of interleukin (IL)-4 (R&D System) in AIM-V Medium (Invitrogen) containing 2% heat-inactivated autologous serum (AS). After 7 days of culture, the cytokine-induced DCs were pulsed with 20 mcg/ml of each of the synthesized peptides in the presence of 3 mcg/ml of beta2-microglobulin for 3 hr at 37 degrees C. in AIM-V Medium. The generated cells appeared to express DC-associated molecules, such as CD80, CD83, CD86 and HLA class II, on their cell surfaces (data not shown). […]
On the technique in general: ELISA stands for enzyme-linked immunosorbent assay.
On to “INHBB-A02-9-174: 9-mer HLA-A*0201 binding epitope peptide derived from INHBB (VQASLWLYL)”, for which the “IFN-gamma production / specific CTL activity of established CTL line” value is “potent IFN-gamma production as compared with the control”.

The test is the same for the next values; noted with them: CTL line expanded from positive well #7, peptide-pulsed target vs target without peptide pulse, listed as SEQ ID NO: 2.
On to “INHBB-A02-9-174: 9-mer HLA-A*0201 binding epitope peptide derived from INHBB (VQASLWLYL)”, for which the “IFN-gamma production / specific CTL activity of established CTL line” value is listed as “higher specific CTL activity against the peptide-pulsed target as compared to the activity against target without peptide pulse”.

The test system of a further test is peptide-pulsed T2 cells. Put plainly: IFN-gamma ELISPOT assay on CTLs induced with INHBB-derived peptides. The format is cell-based, human. Particulars: target cells pulsed with the peptide vs control not pulsed, after 3rd round of stimulation, day 21. An excerpt: Monocyte-derived dendritic cells (DCs) were used as antigen-presenting cells (APCs) to induce cytotoxic T lymphocyte (CTL) responses against peptides presented on human leukocyte antigen (HLA). DCs were generated in vitro as described elsewhere (Nakahara S et al., Cancer Res 2003 Jul 15, 63(14): 4112-8). Specifically, peripheral blood mononuclear cells (PBMCs) isolated from a normal volunteer (HLA-A*0201 positive) by Ficoll-Plaque (Pharmacia) solution were separated by adherence to a plastic tissue culture dish (Becton Dickinson) so as to enrich them as the monocyte fraction. The monocyte-enriched population was cultured in the presence of 1000 U/ml of granulocyte-macrophage colony-stimulating factor (GM-CSF) (R&D System) and 1000 U/ml of interleukin (IL)-4 (R&D System) in AIM-V Medium (Invitrogen) containing 2% heat-inactivated autologous serum (AS). After 7 days of culture, the cytokine-induced DCs were pulsed with 20 mcg/ml of each of the synthesized peptides in the presence of 3 mcg/ml of beta2-microglobulin for 3 hr at 37 degrees C. in AIM-V Medium. The generated cells appeared to express DC-associated molecules, such as CD80, CD83, CD86 and HLA class II, on their cell surfaces (data not shown). These peptide-pulsed DCs were then inactivated by Mitomycin C (MMC) (30 mcg/ml for 30 min) and mixed at a 1:20 ratio with autologous CD8+ T cells, obtained by positive selection with CD8 Positive Isolation Kit (Dynal). These cultures were set up in 48-well plates (Corning); each well contained 1.5×10^4 peptide-pulsed DCs, 3×10^5 CD8+ T cells and 10 ng/ml of IL-7 (R&D System) in 0.5 ml of AIM-V/2% AS medium. Three days later, these cultures were supplemented with IL-2 (CHIRON) to a final concentration of 20 IU/ml. On day 7 and 14, the T cells were further stimulated with the autologous peptide-pulsed DCs. The DCs were prepared each time by the same way described above. CTL was tested against peptide-pulsed T2 cells after the 3rd round of peptide stimulation on day 21 (Tanaka H et al., Br J Cancer 2001 Jan. 5, 84(1): 94-9; Umano Y et al., Br J Cancer 2001 Apr. 20, 84(8): 1052-7; Uchida N et al., Clin Cancer Res 2004 Dec. 15, 10(24): 8577-86; Suda T et al., Cancer Sci 2006 May, 97(5): 411-9; Watanabe T et al., Cancer Sci 2005 Aug, 96(8): 498-506).
Specifically, peptide-pulsed T2 (1×10^4/well) was prepared as stimulator cells. Cultured cells in 48 wells were used as responder cells. IFN-gamma ELISPOT assay and IFN-gamma ELISA assay were performed under manufacture procedure.
With “INHBB-A02-10-237: 10-mer HLA-A*0201 binding epitope peptide derived from INHBB (ALFERGERRL)”, the “IFN-gamma production of peptide-induced CTLs (specific CTL activity)” value (shortened to “IFN-gamma production … (specific CTL activity)”) is reported as “potent IFN-gamma production as compared to the control; also recorded: potent IFN-gamma production as compared with the control”.
As to “INHBB-A02-10-85: 10-mer HLA-A*0201 binding epitope peptide derived from INHBB (RLQMRGRPNI)”, the “IFN-gamma production … (specific CTL activity)” value is “potent IFN-gamma production as compared to the control; also recorded: potent IFN-gamma production as compared with the control”.
Turning to “INHBB-A02-10-256: 10-mer HLA-A*0201 binding epitope peptide derived from INHBB (QELAVVPVFV)”, the “IFN-gamma production … (specific CTL activity)” value is given as “potent IFN-gamma production as compared to the control; also recorded: potent IFN-gamma production as compared with the control”.
With “INHBB-A02-9-213: 9-mer HLA-A*0201 binding epitope peptide derived from INHBB (NMVEKRVDL)”, the “IFN-gamma production … (specific CTL activity)” value is reported as “potent IFN-gamma production as compared to the control; also recorded: potent IFN-gamma production as compared with the control”.
On to “INHBB-A02-10-173: 10-mer HLA-A*0201 binding epitope peptide derived from INHBB (VVQASLWLYL)”, for which the “IFN-gamma production … (specific CTL activity)” value is reported as “potent IFN-gamma production as compared to the control; also recorded: potent IFN-gamma production as compared with the control”.
Consider “INHBB-A02-9-8: 9-mer HLA-A*0201 binding epitope peptide derived from INHBB (ALGAACLLL)”, for which the “IFN-gamma production … (specific CTL activity)” value was “potent IFN-gamma production as compared to the control; also recorded: potent IFN-gamma production as compared with the control”.
On to “INHBB-A02-10-162: 10-mer HLA-A*0201 binding epitope peptide derived from INHBB (FISNEGNQNL)”, for which the “IFN-gamma production … (specific CTL activity)” value is “potent IFN-gamma production as compared to the control; also recorded: potent IFN-gamma production as compared with the control”.
Consider “INHBB-A02-10-179: 10-mer HLA-A*0201 binding epitope peptide derived from INHBB (WLYLKLLPYV)”, for which the “IFN-gamma production … (specific CTL activity)” value is given as “potent IFN-gamma production as compared to the control; also recorded: potent IFN-gamma production as compared with the control”.
On the same count and under the same terms, under “INHBB-A02-9-257: 9-mer HLA-A*0201 binding epitope peptide derived from INHBB (ELAVVPVFV)” stands “potent IFN-gamma production as compared to the control; also recorded: potent IFN-gamma production as compared with the control”; under “INHBB-A02-9-250: 9-mer HLA-A*0201 binding epitope peptide derived from INHBB (VQCDSCQEL)”, “potent IFN-gamma production as compared to the control; also recorded: potent IFN-gamma production as compared with the control”.
On to “INHBB-A02-9-139: 9-mer HLA-A*0201 binding epitope peptide derived from INHBB (RVSEIISFA)”, for which the “IFN-gamma production … (specific CTL activity)” value is recorded as “potent IFN-gamma production as compared to the control; also recorded: potent IFN-gamma production as compared with the control”.
For the substance “INHBB-A02-9-174: 9-mer HLA-A*0201 binding epitope peptide derived from INHBB (VQASLWLYL)”, the “IFN-gamma production … (specific CTL activity)” value was “potent IFN-gamma production as compared to the control; also recorded: potent IFN-gamma production as compared with the control”.
Same read-out and setting: to “INHBB-A02-10-313: 10-mer HLA-A*0201 binding epitope peptide derived from INHBB (RLIGWNDWII)” belongs “potent IFN-gamma production as compared to the control; also recorded: potent IFN-gamma production as compared with the control”; to “INHBB-A02-9-313: 9-mer HLA-A*0201 binding epitope peptide derived from INHBB (RLIGWNDWI)”, “potent IFN-gamma production as compared to the control; also recorded: potent IFN-gamma production as compared with the control”.
